Where no end group is shown, it is not given here.

The test system of this series is MB231 tumors. The arrangement: species or system BALB/c nu/nu mice. The following applies: in vivo. An excerpt:
Female BALB/c nu/nu mice were obtained from BioLASCO Taiwan, Co., Ltd., and housed at the Laboratory Animal Facility, National Taiwan Ocean University, Keelung, Taiwan. Mice were maintained in pathogen-free sterile isolators, according to the guidelines of the Council of Agriculture (COA, Taiwan), and all food, water, caging, and bedding were sterilized before use. The animal protocol (103034) was approved by the Institutional Animal Care and Use Committee (IACUC) of the College of Life Science, National Taiwan Ocean University. For the TP4 treatment assay, nude mice with pre-growth MB231 tumors (n=5 for each group) were subcutaneously injected with TP4 (500 μg in 50 μL distilled water plus 10 μL KY jelly (Johnson & Johnson)) every two days for a total of fourteen times, by which time the tumors had reached an average volume of 30-50 mm^3 in size. Age-matched control nude mice without tumor xenografts were injected with KY jelly (10 μL plus 50 μL distilled water). Tumor size was calculated every two days, using the following formula: volume=[(height×length×width)×3.1416]/6. Mice were sacrificed 28 days after the beginning of TP4 treatment, and the tumors were harvested and weighed. Tumor samples were fixed with formalin and embedded with paraffin. Paraffin sections were stained by Hematoxylin & Eosin (H&E) and immunostained with Ki-67 antibody (Cell Signaling, clone D2H10, 1:100). […]

Turning to “FIHHIIGGLFSAGKAIHRLIRRRRR [TP4, tilapia piscidin 4]”, the mouse body weight result was “no significant differences”. Moreover, the “body weight and adverse side-effects” value (mouse) is “without affecting body weight or causing adverse side-effects”.

These data come from patent US10232013B2, “Use of an antimicrobial peptide TP4 in treating a cancer” (Academia Sinica, priority 2016, dated 2019).
